≈ marks a conversion by molar mass, not a printed value. Where “and” joins values, the source holds several entries; their conditions need not be identical. Equal entries are not always repeated.
Assays:
S. aureus ATCC 13709 [1] = test: Antibacterial susceptibility (MIC), NCCLS broth microdilution; type: cell-based; details: for Antibacterial activity (in words, summary of Table 1): summary over the strains of Table 1; for MIC: Staphylococcus aureus, ATCC13709, read-out: Minimum inhibitory concentration, S. aureus ATCC 13709
Procedure: (§1) Susceptibility of S. aureus strains to the known antibiotics and synthesized compounds was determined by following the guidelines set by NCCLS (M26-A). Compounds were diluted two-fold serially in DMSO and transferred to cation-adjusted Mueller Hinton broth (CAMHB; Becton Dickinson). 50 μL of compounds diluted in CAMHB was mixed with 100 μL of bacteria diluted in CAMHB in 96-well microtiter plates. The final concentration of micro-organisms in the assay was 5×10^5 c.f.u. per mL and the final concentration of DMSO in the assay was 1.25%. Assays were set up in duplicate and incubated at 37° C. for 18 h. The lowest concentration of compound that inhibited visible growth was reported as the minimum inhibitory concentration (MIC).

[2] = system: S. aureus ATCC 43300 (Fluoroquinolone sensitive MRSA); test: as above; type: cell-based; details: for MIC: Staphylococcus aureus, read-out: Minimum inhibitory concentration, S. aureus ATCC 43300
Procedure: as §1

[3] = system: S. aureus BK85 (Fluoroquinolone resistant MRSA); test: as above; type: cell-based; details: for MIC: Staphylococcus aureus, read-out: Minimum inhibitory concentration, S. aureus BK85
Procedure: as §1

S. aureus RN4220 = test: as above; type: cell-based; details: CAMHB, 37° C., 18 h; for MIC: Staphylococcus aureus, RN4220, read-out: Minimum inhibitory concentration, S. aureus RN4220
Procedure: as §1

[4] = system: S. aureus ATCC 13709 Novobiocin and Rifampicin resistant variant; test: microbe, parasite or virus in culture; type: cell-based; details: for Minimum inhibitory concentration, S. aureus ATCC 13709 variant: Novobiocin and Rifampicin resistant variant
Procedure: as §1

S. aureus ATCC 13709 [5] = test: Antibacterial susceptibility (MIC) in the presence of serum; type: cell-based; details: for MIC: Staphylococcus aureus, ATCC13709, 18 h
Procedure: as §1
Susceptibility testing experiments were also carried out in the presence of serum.
These experiments were carried out similar to the susceptibility testing with the following modifications. 75 μL of compounds diluted in CAMHB was mixed with 75 μL of bacteria diluted in 100% serum from any given source (commercial pooled mouse serum (MS) and human serum (HS), Equitech-Bio Inc.) or diluted in 8% purified human serum albumin (HSA) (Calbiochem). The final concentration of animal serum in the assay was 50% and the final concentration of purified human serum albumin in the assay was 4%; the concentrations of all other components were identical to those described for susceptibility testing.

[6] = system: E. coli LBB925 (tolC mutant); test: Antibacterial susceptibility (MIC), NCCLS broth microdilution; type: cell-based; details: for Minimum inhibitory concentration, E. coli LBB925: tolC mutant; for MIC: Escherichia coli, read-out: Minimum inhibitory concentration, E. coli LBB925
[7] = Regeneration of drug from bone powder-bound prodrug; type: in vitro ADME
Procedure: Amounts of parent drug “regenerated” from the phosphonated prodrug were measured as follows. Washed bone powder-bound prodrugs from the above experiment were resuspended in 400 μL PBS+2% DMSO or in 400 μL 50% (v/v in PBS+2% DMSO) human or rat serum. The suspension was incubated overnight at 37° C., centrifuged at 13,000 rpm for 2 min and the supernatant was recovered. The amount of regenerated parent drug in the supernatant was determined by measurements using the microbiological assay that was previously described for the prodrugs themselves. The amount of prodrug was deduced from standard curves of known amounts of parent drug that were used as reference for each experiment.

[8] = system: S. aureus ATCC 13709 Novobiocin resistant mutant (bone infection); test: Prophylactic efficacy in rat model of S. aureus bone infection; type: in vivo; details: rat tibia 24 h postinfection
Procedure: Specifically, a spontaneous Novobiocin resistant mutant strain of S. aureus ATCC 13709 (a clinical osteomyelitis isolate), was grown overnight at 37° C. in brain heart infusion broth (BHIB). After 16 h of growth, cells were subcultured into fresh BHIB and incubated for 4 to 5 h at 37° C. The cells were washed twice with phosphate-buffered saline (PBS) and resuspended in BHIB supplemented with 10% (vol./vol.) fetal bovine serum at a density of approximately 10^10 colony forming units (CFU)/ml (based upon turbidimetry). The suspension was aliquoted and a portion was used to check the CFU count. The culture was stored frozen (−80° C.) and was used without subculture. For use as an inoculum the culture was thawed, diluted in PBS and kept in an ice bath until it was used.
Animals were infected as described by O'Reilly et al. (Antimicrobial Agents and Chemotherapy (1992), 36(12): 2693-97) to generate the bone infection. Female CD rats (age, 57 to 70 days; n=5/group; Charles River, St-Constant, Canada) were anaesthetized by isofluorane before and during the surgery. Following complete induction of anesthesia, the rat was placed ventral side up and hair was shaved from the surgical site. The skin over the leg was cleaned and disinfected (proviodine-ethanol 70%). A longitudinal incision below the knee joint was made in the sagital plane. The incision was made over the bone below the “knee joint” (tibia head or condyle) but not completely extending to the ankle. A high speed drill fitted with a 2 mm bulb bit was used to drill a hole into the medullar cavity of the tibia. Rats were injected intra-tibially with 0.05 ml 5% sodium morrhuate (sclerosing agent) and then with 0.05 ml of S. aureus suspension (ca. 2×10^7 CFU/rat). The hole was sealed by applying a small amount of dry dental cement which immediately absorbs fluids and adheres to the site. The wound was closed using 3 metal skin clips. Moxifloxacin (as a positive control) was injected once at 10 mg/kg intravenously 1 h postinfection in saline, while the Rifamycin derived prodrugs (prepared in 0.9% saline) were injected at the dose indicated in Table 3 as a single intravenous bolus at different time points prior to the infection.
Infected rats were sacrificed by CO2 asphyxiation 24 h postinfection to monitor the bacterial CFU count. Infected tibiae were removed, dissected free of soft tissue, and weighed. The bones were ground, resuspended in 5 ml 0.9% NaCl, serially diluted and processed for quantitative cultures. For compounds 50, 68 and 81, 1 ml of the 0.9% NaCl solution was added to 50 mg of charcoal before serial dilutions. Treatment efficacy was measured in terms of Log viable bacteria (Log CFU per gram of bone). […] The limit of detection is 2 Log CFU. […] Differences were considered significant when the P value was <0.05 when comparing treated infected animals to the untreated infected ones. The doses used, the amount of time separating the treatment from the time of infection and the treatment outcomes are shown in Table 3.

[9] = read-out: Minimum inhibitory concentration, S. aureus ATCC 13709 + 50% Human Serum
[10] = read-out: Minimum inhibitory concentration, S. aureus ATCC 13709 + 50% Mouse Serum
[11] = read-out: Minimum inhibitory concentration, S. aureus ATCC 13709 + 50% Rat Serum

Row | Compound | Minimum inhibitory concentration, S. aureus ATCC 13709 (S. aureus ATCC 13709 [1]) [µg/mL] | Antibacterial activity (in words, summary of Table 1) (S. aureus ATCC 13709 [1]) | Minimum inhibitory concentration, S. aureus ATCC 43300 [2] [µg/mL] | Minimum inhibitory concentration, S. aureus BK85 [3] [µg/mL] | Minimum inhibitory concentration, S. aureus RN4220 (S. aureus RN4220) [µg/mL] | Activity against the Rifampicin resistant variant of S. aureus ATCC13709 (in words) [4] | Minimum inhibitory concentration, S. aureus ATCC 13709 variant [4] [µg/mL] | Impact of serum on the MICs (in words) (S. aureus ATCC 13709 [5]) | Minimum inhibitory concentration, S. aureus ATCC 13709 + 50% Human Serum (S. aureus ATCC 13709 [5]) [µg/mL] | Minimum inhibitory concentration, S. aureus ATCC 13709 + 50% Mouse Serum (S. aureus ATCC 13709 [5]) [µg/mL] | Minimum inhibitory concentration, S. aureus ATCC 13709 + 50% Rat Serum (S. aureus ATCC 13709 [5]) [µg/mL] | Minimum inhibitory concentration, E. coli LBB925 [6] [µg/mL] | MIC (S. aureus ATCC 13709 [1]) [µg/mL] | MIC [2] [µg/mL] | MIC (S. aureus RN4220) [µg/mL] | MIC (S. aureus ATCC 13709 [5]; [9]) [µg/mL] | MIC (S. aureus ATCC 13709 [5]; [10]) [µg/mL] | MIC (S. aureus ATCC 13709 [5]; [11]) [µg/mL] | MIC [6] [µg/mL] | MIC [3] [µg/mL] | further results
1 | CCN(CC)CC.CCN(CC)CC.CO[C@H]1/C=C/O[C@@]2(C)Oc3c(C)c(O)c4c(c3C2=O)C2=NC3(CCN(CC(C)C)CC3)NC2=C(NC(=O)/C(C)=C\C=C\[C@H](C)[C@H](OC(=O)CCC(=O)NC(P(=O)(O)O)P(=O)(O)O)[C@@H](C)[C@@H](O)[C@@H](C)[C@H](OC(C)=O)[C@@H]1C)C4=O [Compound 39, 21-O-(3-((bisphosphonomethyl)carbamoyl)propanoyl)-1′,4-didehydro-1-deoxy-1,4-dihydro-5′-(2-methylpropyl)-1-oxorifamycin XIV] | >128 | near complete loss of activity | >128 | >128 | >128 | complete lack of activity | >128 | no impact | >128 | >128 | 64 | 128 |  |  |  |  |  |  |  |  | Regeneration of parent drug once bound to bone (in words) [7]: not able to regenerate
2 | CCN(CC)CC.CCN(CC)CC.CO[C@H]1/C=C/O[C@@]2(C)Oc3c(C)c(O)c4c(c3C2=O)C2=NC3(CCN(CC(C)C)CC3)NC2=C(NC(=O)/C(C)=C\C=C\[C@H](C)[C@H](OC(=O)CCCOC(=O)CCC(=O)NC(P(=O)(O)O)P(=O)(O)O)[C@@H](C)[C@@H](O)[C@@H](C)[C@H](OC(C)=O)[C@@H]1C)C4=O [Compound 54, 21-O-(4-((3-(bisphosphonomethyl)carbamoyl)propanoyloxy)butanoyl)-1′,4-didehydro-1-deoxy-1,4-dihydro-5′-(2-methylpropyl)-1-oxorifamycin XIV] | 64 | near complete loss of activity | 64 | 64 | 64 | complete lack of activity | >128 | no impact | >128 | >128 | >128 | >128 |  |  |  |  |  |  |  |  | 
3 | CO[C@H]1/C=C/O[C@@]2(C)Oc3c(C)c(O)c4c(=O)c(c5oc6cc(N7CCN(CCO)CC7)cc(O)c6nc-5c4c3C2=O)NC(=O)/C(C)=C\C=C\[C@H](C)[C@H](O)[C@@H](C)[C@@H](O)[C@@H](C)[C@H](OC(C)=O)[C@@H]1C [Compound 56, 1′,4-Didehydro-1-deoxy-1,4-dihydro-3′-hydroxy-5′-[4-(2-hydroxyethyl)-1-piperazinyl]-1-oxorifamycin VIII] |  |  |  |  |  |  |  |  |  |  |  |  | 0.00025 (≈ 0.269 nM) | 0.00025 (≈ 0.269 nM) | 0.00025 (≈ 0.269 nM) | 0.001 | 0.002 | 0.002 | 8 (≈ 8610 nM) |  | Measured bacterial titer ([8]; single dose 20 mg/kg parent drug equivalent, 2 days prior to infection): 3.61 ± 1.57 Log CFU/g of bone
4 | CO[C@H]1/C=C/O[C@@]2(C)Oc3c(C)c(O)c4c(=O)c(c5oc6cc(N7CCNCC7)cc(O)c6nc-5c4c3C2=O)NC(=O)/C(C)=C\C=C\[C@H](C)[C@H](O)[C@@H](C)[C@@H](O)[C@@H](C)[C@H](OC(C)=O)[C@@H]1C [Compound 69, 1′,4-Didehydro-1-deoxy-1,4-dihydro-3′-hydroxy-5′-[1-piperazinyl]-1-oxorifamycin VIII] |  |  |  |  |  |  |  |  |  |  |  |  | 0.00048 (≈ 0.542 nM) |  |  | 0.0019 | 0.0019 | 0.0019 | 4 (≈ 4520 nM) | 0.00024 (≈ 0.271 nM) | 
5 | COc1c(N2C[C@@H]3CCCN[C@@H]3C2)c(F)cc2c(=O)c(C(=O)O)cn(C3CC3)c12 [Moxifloxacin, reference compound] |  |  |  |  |  |  |  |  |  |  |  |  |  |  |  |  |  |  |  |  | Measured bacterial titer, positive control ([8]; 10 mg/kg intravenously once, 1 h postinfection, 10 mg/kg): 2.36 ± 0.21 Log CFU/g of bone and 2.53 ± 0.39 Log CFU/g of bone and 2.59 ± 0.56 Log CFU/g of bone and 2.46 ± 0.52 Log CFU/g of bone and 2.56 ± 0.64 Log CFU/g of bone and 2.20 ± 0.33 Log CFU/g of bone and 2.32 ± 0.33 Log CFU/g of bone and 2.06 ± 0.04 Log CFU/g of bone
6 | CO[C@H]1/C=C/O[C@@]2(C)Oc3c(C)c(O)c4c(O)c(c(/C=N/N5CCN(C)CC5)c(O)c4c3C2=O)NC(=O)/C(C)=C\C=C\[C@H](C)[C@H](O)[C@@H](C)[C@@H](O)[C@@H](C)[C@H](OC(C)=O)[C@@H]1C [Rifampicin, reference compound] |  |  |  |  |  |  |  |  |  |  |  |  | 0.008 (≈ 9.72 nM) | 0.008 (≈ 9.72 nM) | 0.008 (≈ 9.72 nM) | 0.062 | 0.125 | 0.125 | 8 (≈ 9720 nM) | 0.008 (≈ 9.72 nM) | MIC ([4]; Staphylococcus aureus, ATCC13709, read-out: Minimum inhibitory concentration, S. aureus ATCC 13709 variant): > 128 µg/mL

— patent US8404664B2, “Phosphonated Rifamycins and uses thereof for the prevention and treatment of bone and joint infections” (Targanta Therapeutics, Inc., priority 2005, dated 2013)
